The structures appear in SMILES notation.

As usually defined, the IC50 is the concentration that inhibits the measured activity by half.

The target of one assay is T1, PTPN2 (i.e., TC-PTP) (Homo sapiens, UniProt P17706).
T1 sequence (P17706 1-415): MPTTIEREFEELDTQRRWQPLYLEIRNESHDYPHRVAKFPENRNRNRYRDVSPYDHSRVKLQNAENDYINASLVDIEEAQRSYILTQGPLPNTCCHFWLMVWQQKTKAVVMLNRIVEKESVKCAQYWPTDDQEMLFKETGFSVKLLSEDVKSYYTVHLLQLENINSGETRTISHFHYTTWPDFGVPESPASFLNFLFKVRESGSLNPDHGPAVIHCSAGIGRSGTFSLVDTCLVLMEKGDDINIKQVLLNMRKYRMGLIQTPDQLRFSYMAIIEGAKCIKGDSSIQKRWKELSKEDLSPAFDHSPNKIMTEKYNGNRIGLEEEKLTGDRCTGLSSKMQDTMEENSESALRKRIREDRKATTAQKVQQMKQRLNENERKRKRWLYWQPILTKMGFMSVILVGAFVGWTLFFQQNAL
As to the kind of experiment: Phosphatase activity assay (DiFMUP substrate), PTPN2. Type of assay: biochemical. The settings on record: compounds binned ≤1 uM or >1 uM. Summed up:
(§1)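 Enzyme (e.g. PTPN2 0.025 ng/ul) mixed about 2 min with compound at 10 serial concentrations in 50 mM HEPES pH 7.5, 150 mM NaCl, 0.5 mM EDTA, 1 mM DTT, 0.001% Tween-20 at room temperature. DiFMUP added at each enzyme's Km (about 45 μM for PTPN2). DiFMU fluorescence (ex 360/em 450 nm) followed 15-30 min; IC50 from 4-parameter fit of rates.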

The target of a further assay is T2, PTPN1 (i.e., PTP1B) (Homo sapiens, UniProt P18031).
T2 sequence (P18031 1-435): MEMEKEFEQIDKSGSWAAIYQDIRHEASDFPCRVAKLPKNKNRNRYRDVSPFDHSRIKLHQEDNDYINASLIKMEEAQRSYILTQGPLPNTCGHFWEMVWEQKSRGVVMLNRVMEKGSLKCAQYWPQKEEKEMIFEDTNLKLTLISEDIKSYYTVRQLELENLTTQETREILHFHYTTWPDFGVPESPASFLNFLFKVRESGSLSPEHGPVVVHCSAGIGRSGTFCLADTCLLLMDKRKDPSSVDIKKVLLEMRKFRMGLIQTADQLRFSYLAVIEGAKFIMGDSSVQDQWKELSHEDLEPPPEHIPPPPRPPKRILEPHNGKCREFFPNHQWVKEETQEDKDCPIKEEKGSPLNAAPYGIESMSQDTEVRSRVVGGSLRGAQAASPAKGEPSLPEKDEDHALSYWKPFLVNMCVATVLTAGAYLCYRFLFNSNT
As to the kind of experiment: Phosphatase activity assay (DiFMUP substrate), PTP1B. Type of assay: biochemical. The settings on record: compounds binned ≤1 uM or >1 uM. Summed up:
as §1

As for `Cc1cc(-c2ccc(O)c(N3CC(=O)NS3(=O)=O)c2F)nn1C1CC1` [Compound 340, 5-(3-(1-cyclopropyl-5-methyl-1H-pyrazol-3-yl)-2-fluoro-6-hydroxyphenyl)-1,2,5-thiadiazolidin-3-one 1,1-dioxide], the IC50 was not above 1000 nM at PTPN2 (i.e., TC-PTP) and not above 1000 nM on PTPN1 (i.e., PTP1B).

Take `O=C1CN(c2c(O)ccc(-c3cc(C#Cc4cccnc4)n[nH]3)c2F)S(=O)(=O)N1` [Compound 434, 5-(2-fluoro-6-hydroxy-3-(3-(pyridin-3-ylethynyl)-1H-pyrazol-5-yl)phenyl)-1,2,5-thiadiazolidin-3-one 1,1-dioxide]: the IC50 on PTPN2 (i.e., TC-PTP) was not above 1000 nM; at PTPN1 (i.e., PTP1B), not above 1000 nM.

For `O=C1CN(c2c(O)ccc(-c3cnn(C4CCCC4)c3)c2F)S(=O)(=O)N1` [Compound 123, 5-(3-(1-cyclopentyl-1H-pyrazol-4-yl)-2-fluoro-6-hydroxyphenyl)-1,2,5-thiadiazolidin-3-one 1,1-dioxide], the IC50 at PTPN2 (i.e., TC-PTP) was not above 1000 nM; at PTPN1 (i.e., PTP1B), not above 1000 nM.

As for `O=C1CN(c2c(O)ccc(-c3cnn(CC4(Cl)CCC4)c3)c2F)S(=O)(=O)N1` [Compound 387, 5-(3-(1-((1-chlorocyclobutyl)methyl)-1H-pyrazol-4-yl)-2-fluoro-6-hydroxyphenyl)-1,2,5-thiadiazolidin-3-one 1,1-dioxide], the IC50 on PTPN2 (i.e., TC-PTP) is not above 1000 nM; at PTPN1 (i.e., PTP1B), not above 1000 nM.

In the case of `CS(=O)(=O)NC1CC=C(c2ccc(O)c(N3CC(=O)NS3(=O)=O)c2F)CC1` (stereo not drawn) [Compound 363, N-(3′-(1,1-dioxido-4-oxo-1,2,5-thiadiazolidin-2-yl)-2′-fluoro-4′-hydroxy-2,3,4,5-tetrahydro-[1,1′-biphenyl]-4-yl)methanesulfonamide], the IC50 on PTPN2 (i.e., TC-PTP) was not above 1000 nM; at PTPN1 (i.e., PTP1B), not above 1000 nM.

Consider `O=C1CN(c2c(O)ccc(-c3cn(Cc4cccc(F)c4)cn3)c2F)S(=O)(=O)N1` [Compound 200, 5-(2-fluoro-3-(1-(3-fluorobenzyl)-1H-imidazol-4-yl)-6-hydroxyphenyl)-1,2,5-thiadiazolidin-3-one 1,1-dioxide], for which the IC50 on PTPN2 (i.e., TC-PTP) was not above 1000 nM; at PTPN1 (i.e., PTP1B), not above 1000 nM.

`O=C1CN(c2c(O)ccc(-c3cnn4ccccc34)c2F)S(=O)(=O)N1` [Compound 195, 5-(2-fluoro-6-hydroxy-3-(pyrazolo[1,5-a]pyridin-3-yl)phenyl)-1,2,5-thiadiazolidin-3-one 1,1-dioxide]: the IC50 on PTPN2 (i.e., TC-PTP) was not above 1000 nM; on PTPN1 (i.e., PTP1B), not above 1000 nM.

On to `CC1(C)C=C(c2ccc(O)c(N3CC(=O)NS3(=O)=O)c2F)CN1` [Compound 519, 5-(3-(5,5-dimethyl-2,5-dihydro-1H-pyrrol-3-yl)-2-fluoro-6-hydroxyphenyl)-1,2,5-thiadiazolidin-3-one 1,1-dioxide], for which the IC50 is more than 1000 nM on PTPN2 (i.e., TC-PTP) and more than 1000 nM at PTPN1 (i.e., PTP1B).

For `O=C1CN(c2c(O)ccc(-c3cc(C4=CCOC4)n[nH]3)c2F)S(=O)(=O)N1` [Compound 362, 5-(3-(3-(2,5-dihydrofuran-3-yl)-1H-pyrazol-5-yl)-2-fluoro-6-hydroxyphenyl)-1,2,5-thiadiazolidin-3-one 1,1-dioxide], the IC50 was not above 1000 nM on PTPN2 (i.e., TC-PTP) and not above 1000 nM at PTPN1 (i.e., PTP1B).

In the case of `O=C1CN(c2c(O)ccc(-c3cnn(CCO)c3)c2F)S(=O)(=O)N1` [Compound 140, 5-(2-fluoro-6-hydroxy-3-(1-(2-hydroxyethyl)-1H-pyrazol-4-yl)phenyl)-1,2,5-thiadiazolidin-3-one 1,1-dioxide], the concentration for half-maximal inhibition (IC50) on PTPN2 (i.e., TC-PTP) was not above 1000 nM; at PTPN1 (i.e., PTP1B), not above 1000 nM.

As to `CC(C)CCC1C=C(c2ccc(O)c(N3CC(=O)NS3(=O)=O)c2F)CN1` (stereo not drawn) [Compound 541, 5-(2-fluoro-6-hydroxy-3-(5-isopentyl-2,5-dihydro-1H-pyrrol-3-yl)phenyl)-1,2,5-thiadiazolidin-3-one 1,1-dioxide], the IC50 was not above 1000 nM on PTPN2 (i.e., TC-PTP) and not above 1000 nM on PTPN1 (i.e., PTP1B).

Turning to `Cc1ncc(-c2ccc(O)c(N3CC(=O)NS3(=O)=O)c2F)o1` [Compound 101, 5-(2-fluoro-6-hydroxy-3-(2-methyloxazol-5-yl)phenyl)-1,2,5-thiadiazolidin-3-one 1,1-dioxide], the half-inhibitory concentration (IC50) is not above 1000 nM on PTPN2 (i.e., TC-PTP) and not above 1000 nM on PTPN1 (i.e., PTP1B).

As to `O=C1CN(c2c(O)ccc(-c3cn(C4CC4)nc3F)c2F)S(=O)(=O)N1` [Compound 440, 5-(3-(1-cyclopropyl-3-fluoro-1H-pyrazol-4-yl)-2-fluoro-6-hydroxyphenyl)-1,2,5-thiadiazolidin-3-one 1,1-dioxide], the IC50 was not above 1000 nM at PTPN2 (i.e., TC-PTP) and not above 1000 nM on PTPN1 (i.e., PTP1B).

With `N#Cc1ccccc1-n1cnc(-c2ccc(O)c(N3CC(=O)NS3(=O)=O)c2F)c1` [Compound 298, 2-(4-(3-(1,1-dioxido-4-oxo-1,2,5-thiadiazolidin-2-yl)-2-fluoro-4-hydroxyphenyl)-1H-imidazol-1-yl)benzonitrile], the IC50 at PTPN2 (i.e., TC-PTP) was not above 1000 nM; at PTPN1 (i.e., PTP1B), not above 1000 nM.

For `Cc1cc(-c2ccc(O)c(N3CC(=O)NS3(=O)=O)c2F)n(C)n1` [Compound 284, 5-(3-(1,3-dimethyl-1H-pyrazol-5-yl)-2-fluoro-6-hydroxyphenyl)-1,2,5-thiadiazolidin-3-one 1,1-dioxide], the IC50 is not above 1000 nM on PTPN2 (i.e., TC-PTP) and not above 1000 nM on PTPN1 (i.e., PTP1B).

With `N#Cc1cccc(Cn2cc(-c3ccc(O)c(N4CC(=O)NS4(=O)=O)c3F)cn2)c1` [Compound 161, 3-((4-(3-(1,1-dioxido-4-oxo-1,2,5-thiadiazolidin-2-yl)-2-fluoro-4-hydroxyphenyl)-1H-pyrazol-1-yl)methyl)benzonitrile], the IC50 was not above 1000 nM on PTPN2 (i.e., TC-PTP) and not above 1000 nM at PTPN1 (i.e., PTP1B).

In the case of `Cc1noc(C)c1Cn1ccc(-c2ccc(O)c(N3CC(=O)NS3(=O)=O)c2F)c1` [Compound 390, 5-(3-(1-((3,5-dimethylisoxazol-4-yl)methyl)-1H-pyrrol-3-yl)-2-fluoro-6-hydroxyphenyl)-1,2,5-thiadiazolidin-3-one 1,1-dioxide], the IC50 is not above 1000 nM at PTPN2 (i.e., TC-PTP) and not above 1000 nM on PTPN1 (i.e., PTP1B).

Consider `COCC1C=C(c2ccc(O)c(N3CC(=O)NS3(=O)=O)c2F)CN1` (stereo not drawn) [Compound 481, 5-(2-fluoro-6-hydroxy-3-(5-(methoxymethyl)-2,5-dihydro-1H-pyrrol-3-yl)phenyl)-1,2,5-thiadiazolidin-3-one 1,1-dioxide], for which the IC50 at PTPN2 (i.e., TC-PTP) is not above 1000 nM; on PTPN1 (i.e., PTP1B) it was not above 1000 nM.

As to `O=C1CN(c2c(O)ccc(-c3ccc(NS(=O)(=O)C4CC4)nc3)c2F)S(=O)(=O)N1` [Compound 320, N-(5-(3-(1,1-dioxido-4-oxo-1,2,5-thiadiazolidin-2-yl)-2-fluoro-4-hydroxyphenyl)pyridin-2-yl)cyclopropanesulfonamide], the IC50 at PTPN2 (i.e., TC-PTP) was not above 1000 nM; at PTPN1 (i.e., PTP1B) it was not above 1000 nM.

As to `N#CC1(Cn2cc(-c3ccc(O)c(N4CC(=O)NS4(=O)=O)c3F)cn2)CCC1` [Compound 313, 1-((4-(3-(1,1-dioxido-4-oxo-1,2,5-thiadiazolidin-2-yl)-2-fluoro-4-hydroxyphenyl)-1H-pyrazol-1-yl)methyl)cyclobutane-1-carbonitrile], the IC50 at PTPN2 (i.e., TC-PTP) was not above 1000 nM; at PTPN1 (i.e., PTP1B) it was not above 1000 nM.

Consider `O=C1CN(c2c(O)ccc(-c3cn(CC(F)F)nc3F)c2F)S(=O)(=O)N1` [Compound 488, 5-(3-(1-(2,2-difluoroethyl)-3-fluoro-1H-pyrazol-4-yl)-2-fluoro-6-hydroxyphenyl)-1,2,5-thiadiazolidin-3-one 1,1-dioxide], for which the IC50 at PTPN2 (i.e., TC-PTP) was not above 1000 nM; at PTPN1 (i.e., PTP1B), not above 1000 nM.

As for `CC(C)CCn1ccc(-c2ccc(O)c(N3CC(=O)NS3(=O)=O)c2F)c1` [Compound 125, 5-(2-fluoro-6-hydroxy-3-(1-isopentyl-1H-pyrrol-3-yl)phenyl)-1,2,5-thiadiazolidin-3-one 1,1-dioxide], the half-inhibitory concentration (IC50) at PTPN2 (i.e., TC-PTP) was not above 1000 nM; on PTPN1 (i.e., PTP1B), not above 1000 nM.

Regarding `O=C1CN(c2c(O)ccc(-c3cn(-c4cc(F)ccc4F)cn3)c2F)S(=O)(=O)N1` [Compound 303, 5-(3-(1-(2,5-difluorophenyl)-1H-imidazol-4-yl)-2-fluoro-6-hydroxyphenyl)-1,2,5-thiadiazolidin-3-one 1,1-dioxide], the IC50 at PTPN2 (i.e., TC-PTP) was not above 1000 nM; at PTPN1 (i.e., PTP1B), not above 1000 nM.

In the case of `NC(=O)C1(c2cc(-c3ccc(O)c(N4CC(=O)NS4(=O)=O)c3F)[nH]n2)CC1` [Compound 517, 1-(5-(3-(1,1-dioxido-4-oxo-1,2,5-thiadiazolidin-2-yl)-2-fluoro-4-hydroxyphenyl)-1H-pyrazol-3-yl)cyclopropane-1-carboxamide], the IC50 on PTPN2 (i.e., TC-PTP) is not above 1000 nM; on PTPN1 (i.e., PTP1B), not above 1000 nM.

Values taken from patent publication US20240398828A1, “HETERO-ATOM CONTAINING COMPOUNDS AND USES THEREOF” (Kumquat Biosciences Inc., priority 2021, published 2024).
